Test results reported in publication PMC11903455 (Frontiers in Pharmacology, 2025).
Structures can show the parent of a compound that is named as a salt. Where two headings read alike, the source gives them in different places.

Columns and labels:
noradrenaline (NA) = experiment: ELISA of brain tissue: NA; type: in vivo, rat
Procedure: (§1) Anxiety-like depression rat model is induced by chronic induction of corticosterone. Five-week-old SD male rats (8/cage) randomly received 0.45% soluble Corticosterone suspension in β-cyclodextrin. The number of rats in each group has been supplemented in part 1.2 of the manuscript method. Specifically described as “The rats were randomly divided into 7 groups, 8 rats in each group, a total of 56 rats. […] The model was established by subcutaneous injection of corticosterone (20 mg⋅kg^−1) for 21 consecutive days. […] The control group and model group were given the same volume of normal saline. Solution preparation methods are described in Supplementary Material S1.1.
(§2) The contents of Serotonin transporter (5-HTT, JW.RA1057), dopamine (DA, JW.RA1621), γ-aminobutyric acid (GABA, JW.RA1389) and noradrenaline (NA, JW.RA2154) in the hippocampus were measured by ELISA kit. The tissue samples were added to PBS low-temperature homogenate according to 1:10, and the homogenate was centrifuged at 10,000 rpm at 4 °C […] for 10 min. The supernatant was taken to detect the content of the sample.

[1] = no reference given; cited from earlier work
[2] = system: rats with corticosterone-induced anxiety-like depression; experiment: Morris water maze test; type: in vivo, rat
Description: Anxiety-like depression rat model is induced by chronic induction of corticosterone. Five-week-old SD male rats (8/cage) randomly received 0.45% soluble Corticosterone suspension in β-cyclodextrin. The number of rats in each group has been supplemented in part 1.2 of the manuscript method. Specifically described as “The rats were randomly divided into 7 groups, 8 rats in each group, a total of 56 rats. The number of groups were model group, blank control group, positive drug group, low, middle, and high dose of Crocin I group, and gardenia extract group respectively. The model was established by subcutaneous injection of corticosterone (20 mg⋅kg^−1) for 21 consecutive days. […] The control group and model group were given the same volume of normal saline. […]
(§3) After the model was established. […] Depression was assessed by the preference for sweet foods in healthy rats ([Tan et al., 2020]) Details were provided in the Additional file: SI 1.2-1.3.
The water maze round pool was divided into Ⅰ, Ⅱ, Ⅲ, and Ⅳ quadrants. […] The position was placed once along the Ⅰ, Ⅱ, Ⅲ, and Ⅳ quadrants respectively, and the time of finding the platform within 60 seconds was recorded. […] After 5 days, the platform was removed, the animals were put into the pool from the original platform, and the number of rats crossing the target quadrant within 60 seconds was recorded.

[3] = system: γ-aminobutyric acid (GABA); experiment: ELISA of brain tissue: GABA; type: in vivo, rat
Procedure: as §1, §2

dopamine (DA) = experiment: ELISA of brain tissue: DA; type: in vivo, rat; conditions: for brain DA compared with the control group: crocin I high-dose group, positive drug group
Procedure: as §1, §2

[4] = system: Serotonin transporter (5-HTT); experiment: ELISA of brain tissue: 5-HTT; type: in vivo, rat
Procedure: as §1, §2

[5] = system: rats with corticosterone-induced anxiety-like depression; experiment: Sucrose (sugar water) preference test; type: in vivo, rat; conditions: corticosterone model rats; crocin I 2.25, 4.5, 9 mg/kg intragastric
Description: (§4) Anxiety-like depression rat model is induced by chronic induction of corticosterone. Five-week-old SD male rats (8/cage) randomly received 0.45% soluble Corticosterone suspension in β-cyclodextrin. The number of rats in each group has been supplemented in part 1.2 of the manuscript method. Specifically described as “The rats were randomly divided into 7 groups, 8 rats in each group, a total of 56 rats. The number of groups were model group, blank control group, positive drug group, low, middle, and high dose of Crocin I group, and gardenia extract group respectively. The model was established by subcutaneous injection of corticosterone (20 mg⋅kg^−1) for 21 consecutive days. […] The control group and model group were given the same volume of normal saline. Solution preparation methods are described in Supplementary Material S1.1.
as §3
1% sucrose aqueous solution was used in the experiment. […] On the day of the test, two bottles containing the same volume of 1% sucrose solution and ordinary water were put into cages, weighed before and after drinking water, and the liquid consumption in the two bottles within 24 hours was calculated.

cortical neurons = experiment: Nissl staining of prefrontal cortex; type: in vivo, rat; conditions: crocin I low, medium, high doses; Gardenia extract 0.9 g/kg; positive drug 5 mg/kg
Description: as §4
(§5) The rats were deeply anesthetized with 2% sodium pentobarbital. After 15 min, the rats heart were perfused and fixed with normal saline and 4% paraformaldehyde, respectively. Then the brain tissues of rats in different groups were collected. The brain tissue was cryosectioned at a thickness of 3 μm, and then Nissl staining was performed to analyze the hippocampal region of interest. The staining process is detailed in Supplementary Material S1.4.
After the behavioral evaluation of the rats, the rats were anesthetized and decapitated to take the brain. […]

hippocampal neurons = experiment: Nissl staining of hippocampus (DG, CA1, CA3); type: in vivo, rat; conditions: for neuronal cell damage in the dentate gyrus region: after administration, corticosterone model rats; for number of Nissl bodies, hippocampal CA3: crocin I low, medium, high dose, positive drug 5 mg/kg; for number of Nissl bodies, hippocampal CA1: high dose crocin I (9 mg/kg), positive control drug 5 mg/kg
Description: as §4, §5
After the behavioral evaluation of the rats, the rats were anesthetized and decapitated to take the brain. The brain tissue was fixed with 4% paraformaldehyde for 24 hours. Rinse with normal saline to remove the residual fixative. Dehydration with 30% sucrose solution. It was embedded with an OTC embedding agent, and after it was completely frozen, the shape was trimmed and the sections were frozen. According to the localization map of rat brain sections, the target locations of the hippocampus and prefrontal cortex of rats were selected and sectioned continuously in the coronal plane with a thickness of 3 µm. Stick the slides with adhesive slides and bake the slides in an oven at 37 ℃ for half an hour. The slices were stained with methyl violet dye and rinsed with distilled water. Nissl Differentiation was used to differentiate for 5 s and most of the staining solution was removed. The slides were placed successively in different concentrations of ethanol and gradient dehydration (0%, 50%, 75%, and 95% ethanol, the section and background color should be observed under a microscope during dehydration). After dehydration, the sections were sealed with transparent and neutral gum in anhydrous ethanol Ⅰ, Ⅱ, anhydrous ethanol-xylene (1:1), xylene Ⅰ, and Ⅱ solution, respectively, and observed under a microscope.

Caco-2 cells = conditions: no method or reference given; cited from earlier work
[6] = Crocetin content of plasma sample by SERS and liquid phase determination; type: in vivo; conditions: SD, rat, oral, 4.5 mg kg^−1, 0.5 h medium-dose plasma
Procedure: The samples were analyzed by high performance liquid chromatography.
The treatment of plasma samples is described in Procedure 2.2.3. 50 uL of treated plasma was added into silver nanoparticle solution with an equal volume concentration of 10 mg/mL 50 uL mixed solution was placed on a round quartz sheet with a diameter of 1 cm, […] and the Raman spectrum was detected and recorded. Detection conditions: scanning time 3 s, laser power: 80 mW. Spectra are acquired by Optosky Raman microscopy software.
A standard curve was prepared based on the peak intensity of the characteristic peak at 1,532 cm^−1 and the content was determined, as shown in Figure 10C.

[7] = Stability of crocetin in plasma samples; type: in vitro ADME, rat; conditions: within one week at -20°C, n = 6
Procedure: The procedures for precision, stability, limit of quantitation, and sample recovery are described in the Supplementary Material S2.4 Methodological Investigations section.
Plasma samples were collected 30 minutes after administration (n=6). The stability of the samples was calculated within one week at -20°C.

[8] = gardenia extract 0.9 g/kg, positive drug paroxetine hydrochloride 5 mg/kg

Structure (SMILES): CC(/C=C/C=C(\C)C(=O)O[C@@H]1O[C@H](CO[C@@H]2O[C@H](CO)[C@@H](O)[C@H](O)[C@H]2O)[C@@H](O)[C@H](O)[C@H]1O)=C\C=C\C=C(C)\C=C\C=C(/C)C(=O)O[C@@H]1O[C@H](CO[C@@H]2O[C@H](CO)[C@@H](O)[C@H](O)[C@H]2O)[C@@H](O)[C@H](O)[C@H]1O [Crocin I, crocin I]
- NA expression level in brain tissue (noradrenaline (NA); High dose crocin I 9 mg/kg): 5.60 ± 0.02 ng/mL
- NA expression level in brain tissue (noradrenaline (NA); Low dose crocin I 2.25 mg/kg, control 3.78, model 8.08): 5.99 ± 0.02 ng/mL
- NA expression level in brain tissue (noradrenaline (NA); Medium dose crocin I 4.5 mg/kg): 6.73 ± 0.18 ng/mL
- oil-water partition coefficient (logP) [1]: −1.03
- improvement of spatial memory ability ([2]; crocin I 2.25, 4.5, 9 mg/kg): dose-dependent
- escape latency ([2]; crocin I low, middle and high dose groups (2.25, 4.5, 9 mg/kg)): decreased
- GABA expression level in brain tissue ([3]; High dose crocin I 9 mg/kg): 6.83 ± 0.29 µmol/L
- GABA expression level in brain tissue ([3]; Low dose crocin I 2.25 mg/kg, control 7.43, model 4.99): 5.28 ± 0.21 µmol/L
- GABA expression level in brain tissue ([3]; Medium dose crocin I 4.5 mg/kg): 5.49 ± 0.29 µmol/L
- GABA content compared with the model group ([3]; crocin I low-dose group): no significant difference
- DA expression level in brain tissue (dopamine (DA); High dose crocin I 9 mg/kg): 80.22 ± 2.64 nmol/L
- DA expression level in brain tissue (dopamine (DA); Low dose crocin I 2.25 mg/kg, control 84.66, model 169.17): 147.33 ± 3.72 nmol/L
- DA expression level in brain tissue (dopamine (DA); Medium dose crocin I 4.5 mg/kg): 137.22 ± 1.31 nmol/L
- brain DA compared with the control group (dopamine (DA)): no significant difference
- 5-HTT expression level in brain tissue ([4]; High dose crocin I 9 mg/kg): 427.64 ± 7.00 ng/mL
- 5-HTT expression level in brain tissue ([4]; Low dose crocin I 2.25 mg/kg, control 238.58, model 573.69): 374.76 ± 13.24 ng/mL
- 5-HTT expression level in brain tissue ([4]; Medium dose crocin I 4.5 mg/kg): 459.21 ± 5.21 ng/mL
- content of 5-HTT compared with the model group ([4]; crocin I low-, medium-, high-dose, gardenia extract, positive drug, P < 0.001): significantly reduced
- sugar water preference [5]: dose-dependent
- number of Nissl bodies, prefrontal cortex (cortical neurons): increased
- neuronal cell damage in the dentate gyrus region (hippocampal neurons): significantly improved
- dentate gyrus morphology (angle/shape) (hippocampal neurons; crocin I high dose 9 mg/kg): significant changes
- dentate gyrus morphology (angle/shape) (hippocampal neurons; crocin I low dose 2.25 mg/kg): no significant change
- number of Nissl bodies, hippocampal CA3 (hippocampal neurons; gardenia extract 0.9 g/kg): increased in a dependent manner
- dentate gyrus morphology (angle/shape) (hippocampal neurons; crocin I middle dose 4.5 mg/kg): significant changes
- number of Nissl bodies, hippocampal CA1 (hippocampal neurons; gardenia extract 0.9 g/kg): significantly increased
- number of Nissl bodies, dentate gyrus (hippocampal neurons; high-dose crocin I (9 mg/kg), gardenia extract 0.9 g/kg): increased significantly
- apparent permeability coefficient Papp (Caco-2 cells): low

Structure (SMILES): Fc1ccc([C@@H]2CCNC[C@H]2COc2ccc3c(c2)OCO3)cc1 [Positive, paroxetine hydrochloride, reference compound]
- NA expression level in brain tissue (noradrenaline (NA); [8]): 4.64 ± 0.09 ng/mL
- GABA expression level in brain tissue [3, 8]: 7.34 ± 0.30 µmol/L
- brain DA compared with the control group (dopamine (DA)): no significant difference
- DA expression level in brain tissue (dopamine (DA); [8]): 81.70 ± 1.94 nmol/L
- number of Nissl bodies, prefrontal cortex (cortical neurons): increase
- neuronal cell damage in the dentate gyrus region (hippocampal neurons): significantly improved
- number of Nissl bodies, hippocampal CA3 (hippocampal neurons; gardenia extract 0.9 g/kg): no significant increase
- number of Nissl bodies, hippocampal CA1 (hippocampal neurons; gardenia extract 0.9 g/kg): significantly increased

Structure (SMILES): CC(/C=C/C=C(\C)C(=O)O)=C\C=C\C=C(C)\C=C\C=C(/C)C(=O)O [crocetin]
- concentration at 0.5 h ([6]; AgNPs, peak 1,532 cm^-1, read-out: crocetin content in plasma by SERS): 433 ng/mL
- concentration at 0.5 h ([6]; same sample, read-out: crocetin content in plasma by liquid phase determination): 486 ng/mL
- stability in plasma samples: Accuracy (RE, %) ([7]; High dose plasma sample 837.96 ng/mL): 99.64%
- stability in plasma samples: Accuracy (RE, %) ([7]; Low dose plasma sample 292.60 ng/mL): 97.76%
- stability in plasma samples: Accuracy (RE, %) ([7]; Medium dose plasma sample 527.32 ng/mL): 97.14%
- apparent permeability coefficient Papp (Caco-2 cells): high
